Here are results for two compounds from patent US20070032477A1, “Pteridine derivatives useful for making pharmaceutical compositions” (priority 2003, published 2007).

Data set [1] can be described thus: Plasma levels after oral administration in healthy mice. It counts as in vivo, C57BL/6 mice. The protocol:
Each group of 6 mice received the indicated dose at time point 0 and were bled at 1, 3 and 5 hours after compound administration. Quantification was performed using a calibration curve of known compound concentrations spiked in control serum.
The plasma levels of the tested compound (example 176) was evaluated in C57BL/6 mice 8-10 weeks old Harlan, weighing 18.6-22.0 g after oral administration of 20, 10, 5 and 1 mg/kg, respectively (n=6 per dose). The tested compound (example 176) was dissolved in water to the appropriate concentration in order to deliver a constant gavage volume of 10 μl/g of body weight. Blood was collected by eye bleeding with heparinized capillaries at 1, 3, and 5 hours after dosing from each animal. The plasma fraction was immediately separated by centrifugation for 2 minutes at 12,000 g and stored at −80° C. until analysis. Each plasma sample was spiked with internal standard followed by the addition of 4 volumes of methanol. The samples were kept for 30 minutes on ice prior to centrifugation (10 minutes at 12,000 g) in order to remove precipitated proteins. The supernatant was analyzed for the presence of the tested compound (example 176), using LC/MS/MS. As standard for the bio-analysis, the tested compound (example 176) was diluted stepwise; each dilution was added to control plasma; additionally spiked with internal standard, giving rise to standard curves from 200 to 40,000 nM.

The test system of data set [2] is CII induced rheumatoid arthritis in DBA mice. Nature of the data set: Collagen type II induced model of rheumatoid arthritis. Conditions: mice in vivo; example 17 up to 40 mg/kg/day; methotrexate 10 mg/kg/day, 3 times a week. From the text:
Collagen type II (hereinafter referred as CII) induced experimental model of rheumatoid arthritis (hereinafter referred as RA) in DBA mice is widely accepted as the most relevant and predictive preclinical model for RA. In this model, DBA mice are immunized with CII, the collagen type mainly present in the joint structures, together with complete Freund Adjuvant in their tail. 2 to 3 weeks later, several of the immunized mice start to develop arthritis in the four footpaths. In order to further worsen the disease, mice are given a second CII boost at three weeks after the first immunisation, this time however in a footpath. Because the immune system is already immunised in these mice, this rapidly provokes a severe swelling of the injected footpath (named Delayed Type Hypersensitivity or DTH) which can be used as a measurement for T-cell activation. Within a few days after the booster, almost all untreated animals start developing symptoms of arthritis. RA development is scored from 0 to 16 (16 being severe clinical arthritis in all four footpaths). At the end of the study (3 weeks after the CII boost) antibody formation was determined against CII and histology performed on the footpaths.
The efficiency of the pteridine derivative of example 17 (administered in an amount of 20 mg/kg/day, started one day before the CII boost) was explored in this CII-model.

For data set [3], the system named is B16BL/6 melanomasarcoma cells in C57BL/6 mice. Nature of the data set: Inhibition of the metastasis of melanoma cells in mice. Type of data set: in vivo. As to conditions: for proportion of mice having metastasis: inguinal and/or para-aortic lymph nodes. The protocol: C57BL/6 mice were injected with 1.5×10^6 B16BL/6 melanomasarcoma cells subcutaneously in the foot path and were divided, three days later, into 4 groups: • a control 1 group of 6 mice receiving only vehicle 3 times a week; • a control 2 group of 5 mice receiving a lethal dose of TNF (15 μg, subcutaneously) 3 times a week; • a group 3 receiving the pteridine derivative of example 17 alone 3 times a week at 20 mg/kg • a group 4 of 7 mice receiving the pteridine derivative of example 17 in an amount of 20 mg/kg intraperitenously on days 3, 4, and 5 and also receiving TNF (15 μg, subcutaneously) on day 5. This combined treatment with TNF and the pteridine derivative of example 17 was continued for 2 weeks.
Reduction of tumor size is also true in mice of group 3, although to a lesser extent (198 mm^2).
All mice of control group 2 died within the very first days of treatment, whereas mortality was 3/7 in mice of group 4.
At the end of experiment, it was looked macroscopically at black metastasis in inguinal and/or para-aortic lymphoneuds in all tumor bearing groups of mice. The proportions of mice having metastasis were: • 4/5 mice in control group 1, • 0/4 mice in group 4, and • 2/4 in group 3.

Where [4] appears, read: group 4: example 17 20 mg/kg i.p. combined with TNF 15 μg s.c.

For `COc1ccc(-c2cnc3nc(N)nc(N4CCN(c5ccc(C)cc5)CC4)c3n2)cc1OC` [Example 176, 2-amino-6-(3,4-dimethoxyphenyl)-4-((4-methylphenyl)-piperazin-1-yl)pteridine], the “serum level 5 hours after administration compared with TNF-alpha assay IC50” value in data set [1] (20 mg/kg oral) is reported as “still above the IC50 value of the TNF-alpha assay”. Besides, the “circulating concentration (peak serum level)” value in data set [1] (20 mg/kg oral, one hour after administration) is listed as “approximately 1 μM”. In addition, the “serum levels after 5 hours compared with TNF assay IC50” value in data set [1] (all lower doses (10, 5 and 1 mg/kg oral)) was “lower than the IC50 value in the TNF assay”. In addition, the “peak serum levels with increasing doses” value in data set [1] (oral 1, 5, 10, 20 mg/kg, one hour after administration) is “dose-dependent increase”.

Consider `COc1ccc(-c2cnc3nc(N)nc(N4CCN(C(=O)COc5ccccc5)CC4)c3n2)cc1OC` [Example 17, 2-amino-4-[(N-phenoxyacetyl)-piperazin-1-yl]-6-(3,4-dimethoxy-phenyl)pteridine], for which the “mortality or cytotoxic effect on increasing the dose” value in data set [2] was “no mortality or cytotoxic effect”. Besides, the tumor size in data set [3] (group 3: example 17 alone 3 times a week at 20 mg/kg) is given as 198 mm^2; in data set [3] (setting [4]) it was 120 mm^2. The “proportion of mice having metastasis” value in data set [3] (group 3: example 17 alone) is on record as 2/4; in data set [3] (group 4: example 17 combined with TNF) it was 0/4. For the same compound, the mortality in data set [3] (setting [4]) is listed as 3/7.
